The source of these data is patent publication US11247976B2, “Synthetic ligands that modulate the activity of the RhlR quorum sensing receptor” (Wisconsin Alumni Research Foundation, priority 2016, dated 2022).

As usually defined, the EC50 is the concentration at which the effect is half-maximal. Higher therefore signals lower potency in that assay. By IC50 is commonly meant the point on the concentration scale where inhibition reaches its midpoint.

“Also recorded” adds a separate entry of the source. Where two headings read alike, the source gives them in different places. Marks after values point to notes of the source that are not given here.

Assay [1] has as its target T1, RhlR (Pseudomonas aeruginosa, UniProt P54292).
T1 construct: expressed in transfected cells; host or cells: E. coli JLD271 (ΔsdiA) with pJN105R2 (arabinose-induced) and pSC11-rhlI*
Nature of the assay: E. coli RhlR reporter agonism assay (JLD271/pJN105R2/pSC11-rhlI*). Format: cell-based, P. aeruginosa. Conditions: for activation at 10 µM: compound at 10 μM, RhlR activity relative to 1 mM BHL; for Emax: read-out: Maximum Activation (%); for RhlR agonist potency in words: dose-response; for RhlR agonist activity in words: single-concentration screen at 10 μM. On the procedure:
(§1) All media and reagents for bacterial culture were purchased from commercial sources. Bacteria were cultured in Luria-Bertani broth (LB) at 37° C. with shaking at 200 rpm unless otherwise noted. The bacterial reporter strains used for this study were (i) the heterologous E. coli strain JLD271 (ΔsdiA) harboring the RhlR expression plasmid pJN105R2 and the rhlI-lacZ transcriptional fusion reporter pSC11-rhlI*, (ii) the heterologous E. coli strain JLD271 (ΔsdiA) harboring the LasR expression plasmid pJN105L and the […] transcriptional fusion reporter pSC11, and (iii) the P. aeruginosa strain PAO-JP2 (ΔlasrhlI) harboring the rhlI-gfp transcriptional fusion reporter prhlI-LVAgfp. Reporter strains JLD271/pJN105R2/pSC11-rhlI* and JLD271/pJN105L/pSC11 were grown in LB containing 100 μg/mL ampicillin and 10 μg/mL gentamicin. Freezer stocks of bacterial strains were maintained at −80° C. in 1:1 LB:50% glycerol.
(§2) To evaluate the modulatory activities of library compounds on RhlR and LasR using E. coli reporters, the strains JLD271/pJN105R2/pSC11-rhlI* and JLD271/pJN105L/pSC11 were used, respectively, as previously described.^38, 51 The following modifications were used in the RhlR agonism reporter assay, non-native compounds (10 μM or 1 mM) were compared to 1 mM BHL as the positive control. Briefly, a subculture was prepared by diluting an overnight culture 1:10 with fresh media containing 100 μg/mL ampicillin and 10 μg/mL gentamicin, and was incubated until it had grown to OD600=0.45. In all assays, L-arabinose was added to a final concentration of 4 mg/mL to induce RhlR expression. For RhlR agonism assays, activities of test compounds were measured relative to 1 mM BHL (the concentration required to induce a maximal level of RhlR activity). For RhlR antagonism assays, test compounds were competed against a concentration of BHL approximately equal to its EC50 value (10 μM). Activity was measured relative to 10 μM BHL. Inhibition was calculated by subtracting 100% from the relative activity value. Thus, 0% inhibition mimics represents no competitive displacement of 10 μM BHL by a test compound. In all assays, modifications were made to the standard Miller assay protocol to accommodate the use of the chlorophenol red-β-D-galactopyranoside (CPRG) β-galactosidase substrate. After cell lysis, 150 μL of the aqueous layer was transferred from each well of a solvent-resistant 96-well microtiter plate to the wells of a new clear, flat-bottom 96-well microtiter plate. CPRG (4 mg/mL in phosphate-buffered saline) was added to each well in 25 μL volumes. Plates were incubated at 30° C. until the positive control wells developed a red color (approximately 30 min). The amount of processed CPRG substrate was assessed by measuring the absorbance of each well at 570 nm. Enzymatic activity was calculated using the following equation: adjusted Miller units=1000·Abs570/(OD600·t·V),
(§3) where t is the incubation time of substrate with lysate and V is the volume of culture lysed.
Because LuxR-type receptors are often unstable in solution, preventing the use of in vitro assays to directly assess small molecule agonism and antagonism, reporter gene assays represent a standard method for screening small-molecule libraries for LuxR-type receptor modulation. Previously reported strains for this purpose were used in the current study.^38 Synthetic N-butanoyl L-homoserine lactone (BHL), the native ligand of RhlR, was used as the positive control for receptor activation. Commonly, agonists are measured relative to maximum possible receptor activation within a particular assay medium;^40 because the dose-response curve of BHL is distinctly shallow in these RhlR reporters, a high concentration of BHL is required to maximally activate RhlR. In this study, activation of compounds was measured relative to that elicited by 1 mM BHL (the concentration of BHL used causes no aberrant growth effects in the reporter strain). […]

Assay [2] has as its target T2, LasR (Pseudomonas aeruginosa, UniProt P25084).
T2 construct: expressed in transfected cells; host or cells: E. coli JLD271 (ΔsdiA) with pJN105L and pSC11
The assay is described as follows: Selectivity of RhlR agonism over LasR agonism (E. coli LasR reporter JLD271/pJN105L/pSC11). Format: cell-based, P. aeruginosa. Conditions: RhlR % activity divided by LasR % activity, > = negligible activity in LasR reporter. The protocol:
as §1, §2
LasR assays were processed using the protocol for the substrate ortho-nitrophenyl-β-galactoside (ONPG) as previously described elsewhere.^53; and LasR antagonism assays were performed versus the EC50 for OdDHL (2 nM).
The selectivity of certain compounds for RhlR over LasR was measured using a LasR reporter strain (details above). Table 6 provides a comparison of selectivity of RhlR agonism over LasR agonism for exemplary compounds. Table 7 provides a comparison of selectivity of RhlR antagonism over LasR antagonism for exemplary compounds.

The target in assay [3] is T1, RhlR. Nature of the assay: P. aeruginosa RhlR reporter agonism assay (PAO-JP2/prhlI-LVAgfp). The following applies: for Emax: read-out: Maximum Activation (%). Format: cell-based.
Assay [4] has as its target T1, RhlR. Nature of the assay: E. coli RhlR reporter antagonism assay vs 10 μM BHL (JLD271/pJN105R2/pSC11-rhlI*). The following applies: for inhibition at 10 µM: read-out: % inhibition (10 μM), compound at 10 μM in the presence of 10 μM BHL; for Maximum Inhibition (%): E. coli reporter, relative to activation of 10 μM BHL alone. Format: cell-based, P. aeruginosa. On the procedure: as §1
as §2, with “For RhlR antagonism assays, test compounds were competed against a concentration of BHL approximately equal to its EC50 value (10 μM).” left out
as §3
The RhlR-modulatory activity of the J library compounds was assessed in a heterologous reporter strain (E. coli JLD271 harboring plasmids pJN105R2 and pSC11-rhlI*) in order to isolate the RhlR receptor from upstream QS regulation (e.g. regulation by LasR). Thus, the extent to which compounds were directly modulating RhlR could be determined. These assays were performed by incubating compound-treated, mid-log phase E. coli reporter cells in 96-well microtiter plates, followed by Miller assay evaluation of ß-galactosidase activity.
RhlR agonism and antagonism screens of each compound were performed initially at 10 μM.

Where [5] appears, read: negative = agonism stronger than 10 μM BHL alone.
Where [6] appears, read: read-out: % inhibition (1 mM), compound at 1 mM in the presence of 10 μM BHL, negative = agonism stronger than 10 μM BHL alone.

T2 sequence (P25084 whole entry): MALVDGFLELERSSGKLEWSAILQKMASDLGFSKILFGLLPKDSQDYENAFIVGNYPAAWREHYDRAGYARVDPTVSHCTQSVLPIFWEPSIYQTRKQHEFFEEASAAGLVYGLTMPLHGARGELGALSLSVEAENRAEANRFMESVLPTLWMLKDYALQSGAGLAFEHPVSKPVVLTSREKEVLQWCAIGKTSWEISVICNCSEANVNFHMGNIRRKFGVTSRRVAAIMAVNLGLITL
T1 sequence (P54292 whole entry): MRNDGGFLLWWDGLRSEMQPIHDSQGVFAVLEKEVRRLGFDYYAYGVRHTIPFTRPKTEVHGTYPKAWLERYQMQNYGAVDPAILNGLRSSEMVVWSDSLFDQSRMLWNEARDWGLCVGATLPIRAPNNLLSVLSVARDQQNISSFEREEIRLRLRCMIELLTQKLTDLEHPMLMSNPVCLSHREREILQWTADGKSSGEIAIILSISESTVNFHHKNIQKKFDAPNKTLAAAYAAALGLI

Consider `CCCC(=O)N[C@H]1CCOC1=O` [BHL, N-butanoyl L-homoserine lactone, reference compound], for which the concentration for a half-maximal effect (EC50) in assay [1] worked out at 8.95 µM; in assay [3], 8.08 µM. Besides, in assay [1] (E. coli reporter), the “Hill slope of agonism dose-response” value is on record as 0.7. For the same molecule, the activation at 10 µM in assay [1] (E. coli reporter) was found to be 51%. Moreover, the Emax in assay [1] and in assay [3] was 100% in each case. For the same molecule, the “Fold selectivity of RhlR agonists over LasR agonism” value (shortened to “Fold selectivity of RhlR agonists”) amounted to 18 fold in assay [2] (tested concentration 1 mM) and 56 fold in assay [2] (tested concentration 10 μm).

Consider `CC(C)CC(=O)N[C@H]1CCOC1=O` [Compound J18, isovaleryl HL], for which, in assay [1], the half-maximal effective concentration (EC50) turned out to be 1.02 µM and the Emax stood at 105%. Further, the “fold more potent than the native ligand” value in assay [1] (E. coli reporter, EC50 vs BHL) is listed as roughly 10 fold. Also, in assay [1] (E. coli reporter), the activation at 10 µM was 86%, the “RhlR agonist potency in words” value was “significantly more potent than BHL” and the “RhlR agonist activity in words” value is reported as “comparable RhlR activation to that of BHL”. Also, the inhibition at 10 µM in assay [4] (setting [5]) is -62%. The inhibition at 1000 µM in assay [4] (setting [6]) is -123%. For the same molecule, in assay [2] (tested concentration 1 mM), the “Fold selectivity of RhlR agonists” value was >99^b fold. Moreover, the “Fold selectivity of RhlR agonists” value in assay [2] (tested concentration 10 μm) is given as 255^ fold. Besides, in assay [3], the 50% effective concentration (EC50) stood at 1.42 µM and the Emax was 94%.

Consider `O=C(N[C@H]1CCOC1=O)C1CCC1` [Compound J24, cyclobutanoyl AHL], for which, in assay [1], a half-maximal response (EC50) required 1.78 µM and the Emax was 100%. Also, in assay [1] (E. coli reporter), the activation at 10 µM came out at 79%, the “RhlR agonist potency in words” value is reported as “significantly more potent than BHL; also recorded: rivaled in potency that of S4” and the “RhlR agonist activity in words” value is reported as “strong”. The inhibition at 10 µM in assay [4] (setting [5]) is -66%. The inhibition at 1000 µM in assay [4] (setting [6]) was -110%. For the same molecule, the “Fold selectivity of RhlR agonists” value in assay [2] (tested concentration 1 mM) was found to be 48 fold. The “Fold selectivity of RhlR agonists” value in assay [2] (tested concentration 10 μm) is on record as >79^b fold. Further, in assay [3], the EC50 amounted to 1.41 µM and the Emax turned out to be 95%.

In assay [1] (E. coli reporter), `CCCC(=O)NC1CCCC1` [RN4] came in with an activation at 10 µM of 0%. For the same molecule, the inhibition at 10 µM in assay [4] (setting [5]) was 9%. Besides, the inhibition at 1000 µM in assay [4] (setting [6]) was 45%.

`CCCC(=O)N[C@@H]1CCOC1=O` [RN5] returned an activation at 10 µM in assay [1] (E. coli reporter) of 2%. Also, in assay [4] (setting [5]), the inhibition at 10 µM worked out at 1%. The inhibition at 1000 µM in assay [4] (setting [6]) was 11%.

The molecule `CCCS(=O)(=O)N[C@H]1CCOC1=O` [RN6] registered an activation at 10 µM in assay [1] (E. coli reporter) of 1%. The inhibition at 10 µM in assay [4] (setting [5]) amounted to 8%. For the same molecule, the inhibition at 1000 µM in assay [4] (setting [6]) is 55%.

As for `CCCC(=O)O[C@H]1CCOC1=O` [RN7], the activation at 10 µM in assay [1] (E. coli reporter) amounted to 0%. In addition, the inhibition at 10 µM in assay [4] (setting [5]) is 4%. Further, the inhibition at 1000 µM in assay [4] (setting [6]) stood at 6%.

Consider `CCCC(=O)N[C@H]1CCSC1=O` [RN8], for which the half-maximal effective concentration (EC50) in assay [1] amounted to 4.87 µM; in assay [3], 14.3 µM. In assay [1] (E. coli reporter), this molecule showed an activation at 10 µM of 71%. In addition, the Emax in assay [1] was 102%; in assay [3], 94%. For the same molecule, the inhibition at 10 µM in assay [4] (setting [5]) is -8%. Also, in assay [4] (setting [6]), the inhibition at 1000 µM is -75%. Moreover, the “Fold selectivity of RhlR agonists” value in assay [2] (tested concentration 1 mM) amounted to 4.5 fold; in assay [2] (tested concentration 10 μm) it was 17 fold.

On to `CCCC(=O)N[C@H]1CCNC1=O` [RN9], for which, in assay [1] (E. coli reporter), the activation at 10 µM is 1%. In assay [4] (setting [5]), the inhibition at 10 µM was -1%. In addition, the inhibition at 1000 µM in assay [4] (setting [6]) came to 35%.

In turn, `CCCC(=O)NCC1CCCO1` (centres unmarked) [RN10] yielded an activation at 10 µM in assay [1] (E. coli reporter) of 0%. Moreover, the inhibition at 10 µM in assay [4] (setting [5]) was 1%. Moreover, the inhibition at 1000 µM in assay [4] (setting [6]) stood at 57%.

As for `CCCC(=O)NCC1CCCN1` (centres unmarked) [RN11], in assay [1] (E. coli reporter), the activation at 10 µM was 0%. The inhibition at 10 µM in assay [4] (setting [5]) is -3%. The inhibition at 1000 µM in assay [4] (setting [6]) is -1%.

On to `O=C(COc1ccc(I)cc1)NC1CCCC1` [RN17], for which the activation at 10 µM in assay [1] (E. coli reporter) was 1%. For the same molecule, the “Maximum Inhibition (%)” value in assay [4] was 31%. For the same molecule, in assay [4] (setting [5]), the inhibition at 10 µM is 6%. In assay [4] (read-out: % inhibition (1 mM), screened at a maximal concentration of 100 microM (solubility), in the presence of 10 μM BHL), the inhibition at 1000 µM is 24%.

In the case of `O=C(COc1ccc(I)cc1)NCC1CCCO1` (centres unmarked) [RN23], the activation at 10 µM in assay [1] (E. coli reporter) turned out to be 0%. Further, in assay [4], the IC50 was greater than 100 µM and the “Maximum Inhibition (%)” value worked out at 56%. Moreover, in assay [4] (E. coli reporter vs 10 μM BHL), the “RhlR antagonist activity in words” value was “potent antagonist activity; also recorded: negligible maximum potency difference from its head group parent compound RN10”. Further, the inhibition at 10 µM in assay [4] (setting [5]) turned out to be 6%. The inhibition at 1000 µM in assay [4] (setting [6]) was greater than 50%.

`CC(C)CC(=O)NC1CCCC1` [RN39] showed an activation at 10 µM in assay [1] (E. coli reporter) of 0%. For the same molecule, in assay [4] (setting [5]), the inhibition at 10 µM is 11%. Also, the inhibition at 1000 µM in assay [4] (setting [6]) turned out to be 31%.
